Measured values from PMC6014686, “Thienopyrimidinone Based Sirtuin-2 (SIRT2)-Selective Inhibitors Bind in the Ligand Induced Selectivity Pocket” (Journal of Medicinal Chemistry, 2017).

How the values were obtained:
[1] = test system: acetylated (lysine-40) α-tubulin in MCF-7 cells; test: Tubulin acetylation assay, Western blot in MCF-7 cells with TSA; settings: 0-50 μM for 24 h with 50 nM TSA, N = 3
[2] = target: T1, SIRT1 (Homo sapiens, UniProt Q96EB6); parameters: method as in PMID 25395356; settings: reported earlier; cited from earlier work
T1 sequence (Q96EB6 1-747): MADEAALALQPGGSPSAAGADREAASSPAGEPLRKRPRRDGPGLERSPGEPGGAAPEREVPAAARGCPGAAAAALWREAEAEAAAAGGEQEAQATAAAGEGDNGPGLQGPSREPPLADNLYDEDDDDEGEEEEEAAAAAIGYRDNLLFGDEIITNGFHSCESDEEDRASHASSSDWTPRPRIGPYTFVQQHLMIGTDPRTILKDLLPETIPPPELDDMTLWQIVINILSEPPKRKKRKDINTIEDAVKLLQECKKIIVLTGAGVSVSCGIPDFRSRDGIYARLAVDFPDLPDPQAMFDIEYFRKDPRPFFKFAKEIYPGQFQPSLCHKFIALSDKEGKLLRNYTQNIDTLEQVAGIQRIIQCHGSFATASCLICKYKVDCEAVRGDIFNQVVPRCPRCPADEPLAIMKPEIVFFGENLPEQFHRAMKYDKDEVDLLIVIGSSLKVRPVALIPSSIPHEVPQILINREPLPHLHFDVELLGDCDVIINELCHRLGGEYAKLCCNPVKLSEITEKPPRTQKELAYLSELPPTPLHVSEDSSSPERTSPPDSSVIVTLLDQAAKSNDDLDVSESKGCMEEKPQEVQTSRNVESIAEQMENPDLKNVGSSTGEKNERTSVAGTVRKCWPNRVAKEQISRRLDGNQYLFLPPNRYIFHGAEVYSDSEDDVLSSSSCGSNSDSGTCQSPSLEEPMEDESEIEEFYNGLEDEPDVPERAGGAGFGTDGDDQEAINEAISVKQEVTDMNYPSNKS

[3] = test system: SIRT5; parameters: method as in PMID 25395356; settings: cited from earlier work
[4] = target: T2, SIRT3 (Homo sapiens, UniProt Q9NTG7); parameters: method as in PMID 25395356; settings: reported earlier; cited from earlier work
T2 sequence (Q9NTG7 1-399): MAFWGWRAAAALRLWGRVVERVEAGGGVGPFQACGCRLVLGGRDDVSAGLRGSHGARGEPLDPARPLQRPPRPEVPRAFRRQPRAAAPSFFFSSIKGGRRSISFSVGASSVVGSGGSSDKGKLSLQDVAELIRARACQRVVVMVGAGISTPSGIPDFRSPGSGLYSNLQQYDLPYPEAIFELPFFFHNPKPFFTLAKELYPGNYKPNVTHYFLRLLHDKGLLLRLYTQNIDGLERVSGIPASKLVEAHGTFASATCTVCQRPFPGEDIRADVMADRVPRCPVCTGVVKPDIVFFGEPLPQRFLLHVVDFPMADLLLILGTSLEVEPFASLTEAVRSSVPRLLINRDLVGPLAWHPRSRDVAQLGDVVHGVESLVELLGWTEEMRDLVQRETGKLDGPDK

[5] = test system: Parkinsonian neuronal cell death model; parameters: method as in PMID 25395356; settings: cited from earlier work

For COc1ccc2ccccc2c1Cn1cnc2sc3c(c2c1=O)CCC(NCc1cccnc1)C3 (stereo not drawn) [19a], the “effect on α-tubulin acetylation level” value [1] is listed as “showed increased acetylated α-tubulin level at 20 μM and decreased level at 50 μM”, the SIRT2/SIRT1 selectivity [2] is listed as over 100 and the IC50 ([3]; Figure 1) is listed as over 100 µM. The “selectivity for SIRT2 in comparison to SIRT5” value ([3]; previous study) was “more than 100”, the SIRT2/SIRT3 selectivity [4] was over 100 and the neuroprotection [5] was “showed neuroprotection”.
